Assay results from patent publication US20170071944A1, “MODULATORS OF TOLL-LIKE RECEPTORS FOR THE TREATMENT OF HIV” (Gilead Sciences, Inc., priority 2015, published 2017).

Tested on: PBMC cultures from HIV-1 infected subjects on cART
Experiment: Induced cytokines and chemokines in PBMC cultures from HIV-1 infected subjects on cART (multiplexed Luminex)
Type: cell-based, human
Settings: day 2, geometric mean, 4 subjects
Method: To further characterize the immune modulatory effect of TLR8 agonists in cells from HIV-infected subjects, the production of secreted cytokines and chemokines was measured in PBMCs from 4 HIV-infected subjects on suppressive cART (anonymized participant IDs 180-183). PBMCs were purified, as described in Example 121, and immediately added to tissue culture plates pre-equilibrated at 37° C. with media containing DMSO (vehicle control) or with the TLR8 modulating compound Example 15 at concentrations ranging from 1.0 nM to 10.0 μM. On day 2 after treatment, cell-free culture supernatants were collected and frozen at −80 C for subsequent analysis. Frozen supernatants were thawed at room temperature, and the indicated cytokines and chemokines were quantified with a custom multiplexed xMAP Luminex® assay following the manufacturer's instructions (Thermo Fisher Scientific Inc., Grand Island, N.Y., custom-designed kit).
Data are expressed as geometric mean cytokine values (pg/ml) obtained from 4 subjects' PBMCs. Geometric mean fold-activation from three independent incubation samples for each condition. Fold (fold-activation) is calculated as a ratio of the concentration of cytokine detected in cell culture supernatants from agonist treated samples relative to DMSO treated samples

SMILES: CCCC[C@H](CO)Nc1nc(N)nc2cccnc12 [Example 15]
- GRO-α (Ex 15 1 nM): 31 pg/mL
- GRO-α Fold vs DMSO (Ex 15 1 nM): 1 fold
- Granzyme B (Ex 15 1 nM): 80 pg/mL
- Granzyme B Fold vs DMSO (Ex 15 1 nM): <1 fold
- I-TAC (Ex 15 1 nM): 82 pg/mL
- I-TAC Fold vs DMSO (Ex 15 1 nM): 2 fold
- IFN-α (Ex 15 1 nM): 4 pg/mL
- IFN-α Fold vs DMSO (Ex 15 1 nM): 2 fold
- IFN-γ (Ex 15 1 nM): 50 pg/mL
- IFN-γ Fold vs DMSO (Ex 15 1 nM): 2 fold
- IL-6 pg/ml (Ex 15 1 nM): 61 pg/mL
- IL-8 pg/ml (Ex 15 1 nM): 624 pg/mL
- IL-10 pg/ml (Ex 15 1 nM): 25 pg/mL
- IL-18 pg/ml (Ex 15 1 nM): 23 pg/mL
- IL-23 pg/ml (Ex 15 1 nM): 131 pg/mL
- IL-1RA (Ex 15 1 nM): 11610 pg/mL
- IL-1RA Fold vs DMSO (Ex 15 1 nM): 3 fold
- IL-1β (Ex 15 1 nM): 5 pg/mL
- IL-1β Fold vs DMSO (Ex 15 1 nM): 2 fold
- IL-6 Fold vs DMSO (Ex 15 1 nM): 1 fold
- IL-8 Fold vs DMSO (Ex 15 1 nM): 2 fold
- IL-10 Fold vs DMSO (Ex 15 1 nM): 1 fold
- IL-18 Fold vs DMSO (Ex 15 1 nM): 1 fold
- IL-23 Fold vs DMSO (Ex 15 1 nM): 2 fold
- IP-10 pg/ml (Ex 15 1 nM): 696 pg/mL
- IP-10 Fold vs DMSO (Ex 15 1 nM): 3 fold
- MCP-1 pg/ml (Ex 15 1 nM): 180 pg/mL
- MCP-1 Fold vs DMSO (Ex 15 1 nM): 3 fold
- MIP-1α (Ex 15 1 nM): 251 pg/mL
- MIP-1α Fold vs DMSO (Ex 15 1 nM): 5 fold
- MIP-1β (Ex 15 1 nM): 2189 pg/mL
- MIP-1β Fold vs DMSO (Ex 15 1 nM): 2 fold
- MIP-3α (Ex 15 1 nM): 23 pg/mL
- MIP-3α Fold vs DMSO (Ex 15 1 nM): 1 fold
- MMP-1 pg/ml (Ex 15 1 nM): 119 pg/mL
- MMP-1 Fold vs DMSO (Ex 15 1 nM): 1 fold
- GRO-α (Ex 15 10 nM): 29 pg/mL
- GRO-α Fold vs DMSO (Ex 15 10 nM): 1 fold
- Granzyme B (Ex 15 10 nM): 74 pg/mL
- Granzyme B Fold vs DMSO (Ex 15 10 nM): <1 fold
- I-TAC (Ex 15 10 nM): 70 pg/mL
- I-TAC Fold vs DMSO (Ex 15 10 nM): 1 fold
- IFN-α (Ex 15 10 nM): 4 pg/mL
- IFN-α Fold vs DMSO (Ex 15 10 nM): 2 fold
- IFN-γ (Ex 15 10 nM): 48 pg/mL
- IFN-γ Fold vs DMSO (Ex 15 10 nM): 2 fold
- IL-6 pg/ml (Ex 15 10 nM): 61 pg/mL
- IL-8 pg/ml (Ex 15 10 nM): 333 pg/mL
- IL-10 pg/ml (Ex 15 10 nM): 21 pg/mL
- IL-18 pg/ml (Ex 15 10 nM): 26 pg/mL
- IL-23 pg/ml (Ex 15 10 nM): 86 pg/mL
- IL-1RA (Ex 15 10 nM): 5309 pg/mL
- IL-1RA Fold vs DMSO (Ex 15 10 nM): 1 fold
- IL-1β (Ex 15 10 nM): 2 pg/mL
- IL-1β Fold vs DMSO (Ex 15 10 nM): 1 fold
- IL-6 Fold vs DMSO (Ex 15 10 nM): 1 fold
- IL-8 Fold vs DMSO (Ex 15 10 nM): 1 fold
- IL-10 Fold vs DMSO (Ex 15 10 nM): 1 fold
- IL-18 Fold vs DMSO (Ex 15 10 nM): 2 fold
- IL-23 Fold vs DMSO (Ex 15 10 nM): 1 fold
- IP-10 pg/ml (Ex 15 10 nM): 259 pg/mL
- IP-10 Fold vs DMSO (Ex 15 10 nM): 1 fold
- MCP-1 pg/ml (Ex 15 10 nM): 91 pg/mL
- MCP-1 Fold vs DMSO (Ex 15 10 nM): 1 fold
- MIP-1α (Ex 15 10 nM): 70 pg/mL
- MIP-1α Fold vs DMSO (Ex 15 10 nM): 1 fold
- MIP-1β (Ex 15 10 nM): 1302 pg/mL
- MIP-1β Fold vs DMSO (Ex 15 10 nM): 1 fold
- MIP-3α (Ex 15 10 nM): 23 pg/mL
- MIP-3α Fold vs DMSO (Ex 15 10 nM): 1 fold
- MMP-1 pg/ml (Ex 15 10 nM): 104 pg/mL
- MMP-1 Fold vs DMSO (Ex 15 10 nM): 1 fold
- TNF-α (Ex 15 10 nM): 35 pg/mL
- TNF-α Fold vs DMSO (Ex 15 10 nM): 2 fold
- GRO-α (Ex 15 100 nM): 469 pg/mL
- GRO-α Fold vs DMSO (Ex 15 100 nM): 20 fold
- Granzyme B (Ex 15 100 nM): 79 pg/mL
- Granzyme B Fold vs DMSO (Ex 15 100 nM): <1 fold
- I-TAC (Ex 15 100 nM): 32 pg/mL
- I-TAC Fold vs DMSO (Ex 15 100 nM): 1 fold
- IFN-α (Ex 15 100 nM): 3 pg/mL
- IFN-α Fold vs DMSO (Ex 15 100 nM): 1 fold
- IFN-γ (Ex 15 100 nM): 49 pg/mL
- IFN-γ Fold vs DMSO (Ex 15 100 nM): 2 fold
- IL-6 pg/ml (Ex 15 100 nM): 4424 pg/mL
- IL-8 pg/ml (Ex 15 100 nM): 2561 pg/mL
- IL-10 pg/ml (Ex 15 100 nM): 2459 pg/mL
- IL-18 pg/ml (Ex 15 100 nM): 20 pg/mL
- IL-23 pg/ml (Ex 15 100 nM): 130 pg/mL
- IL-1RA (Ex 15 100 nM): 41213 pg/mL
- IL-1RA Fold vs DMSO (Ex 15 100 nM): 12 fold
- IL-1β (Ex 15 100 nM): 135 pg/mL
- IL-1β Fold vs DMSO (Ex 15 100 nM): 45 fold
- IL-6 Fold vs DMSO (Ex 15 100 nM): 57 fold
- IL-8 Fold vs DMSO (Ex 15 100 nM): 8 fold
- IL-10 Fold vs DMSO (Ex 15 100 nM): 145 fold
- IL-12p70 pg/ml (Ex 15 100 nM): 6 pg/mL
- IL-12p70 Fold vs DMSO (Ex 15 100 nM): 2 fold
- IL-18 Fold vs DMSO (Ex 15 100 nM): 1 fold
- IL-23 Fold vs DMSO (Ex 15 100 nM): 2 fold
- IP-10 pg/ml (Ex 15 100 nM): 226 pg/mL
- IP-10 Fold vs DMSO (Ex 15 100 nM): 1 fold
- MCP-1 pg/ml (Ex 15 100 nM): 2162 pg/mL
- MCP-1 Fold vs DMSO (Ex 15 100 nM): 33 fold
- MIP-1α (Ex 15 100 nM): 172 pg/mL
- MIP-1α Fold vs DMSO (Ex 15 100 nM): 3 fold
- MIP-1β (Ex 15 100 nM): 1302 pg/mL
- MIP-1β Fold vs DMSO (Ex 15 100 nM): 1 fold
- MIP-3α (Ex 15 100 nM): 28 pg/mL
- MIP-3α Fold vs DMSO (Ex 15 100 nM): 1 fold
- MMP-1 pg/ml (Ex 15 100 nM): 198 pg/mL
- MMP-1 Fold vs DMSO (Ex 15 100 nM): 2 fold
- TNF-α (Ex 15 100 nM): 132 pg/mL
- TNF-α Fold vs DMSO (Ex 15 100 nM): 6 fold
- GRO-α (Ex 15 1000 nM): 413 pg/mL
- GRO-α Fold vs DMSO (Ex 15 1000 nM): 18 fold
- Granzyme B (Ex 15 1000 nM): 878 pg/mL
- Granzyme B Fold vs DMSO (Ex 15 1000 nM): 4 fold
- I-TAC (Ex 15 1000 nM): 105 pg/mL
